Read-outs that look alike come from different tables or passages of the source.
Legend:
[1] = biological target: LYN (Homo sapiens, UniProt P07948); test: Caliper Mobility Shift Assay, kinase inhibition; assay type: biochemical
From the text: (§1) The test method used was the Caliper Mobility Shift Assay, the kinases to be tested are BTK, ITK, TEC, EGFR, HER2, HER4, JAK3, HCK, LYN, SRC and SYK. The standard reference compound used was staurosporine.

[2] = biological target: SRC (Homo sapiens, UniProt P12931); test: Caliper Mobility Shift Assay, kinase inhibition; assay type: biochemical
From the text: as §1

[3] = biological target: HCK (Homo sapiens, UniProt P08631); test: Caliper Mobility Shift Assay, kinase inhibition; assay type: biochemical
From the text: as §1

[4] = biological target: SYK (Homo sapiens, UniProt P43405); test: Caliper Mobility Shift Assay, kinase inhibition; assay type: biochemical
From the text: as §1

[5] = In vitro liver microsomal metabolism (mouse); assay type: in vitro ADME; conditions: for half-life / CLint scaled: mouse liver microsomes; for half-life: NADPH, 37° C., read-out: T1/2 in liver microsomes; for CLint scaled: calculated from elimination half life, read-out: intrinsic clearance (CLint)
Procedure: (§2) In addition, in vitro liver microsomal metabolism of the compounds of the present invention was also tested. The test compound was co-incubated with NADPH and mouse or human liver microsomes in a 37° C. water bath pot, a reaction was initiated by adding the test compound. […] was taken at different time points (0, 10, 20, 40 and 60 minutes) and transferred to acetonitrile containing an internal standard. After proteins were precipitated, the supernatant was obtained by centrifugation. The test compound in the supernatant was analyzed by the LC-MS/MS method. The intrinsic clearance in vitro was calculated according to the elimination half life of the test compound in the incubation system. Midazolam was subjected to parallel incubation as a positive control. […] Tests of the other compounds of the present invention also had similar results.

[6] = disclosed in a conference paper (2nd International Conference on New Concepts in B-cell Malignancies, 2016); cited from earlier work
[7] = In vitro liver microsomal metabolism (human); assay type: in vitro ADME; conditions: human liver microsomes; for half-life: NADPH, 37° C., read-out: T1/2 in liver microsomes; for CLint scaled: calculated from elimination half life, read-out: intrinsic clearance (CLint)
Procedure: as §2

[8] = biological target: BTK (Homo sapiens, UniProt Q06187); test: Caliper Mobility Shift Assay, kinase inhibition; assay type: biochemical; conditions: for IC50: BTK enzyme activity; for inhibiting effects on BTK kinase (in words): summary of Table 1
From the text: as §1

[9] = biological target: HER2 (Homo sapiens, UniProt P04626); test: Caliper Mobility Shift Assay, kinase inhibition; assay type: biochemical
From the text: as §1

[10] = biological target: T1, TEC (Homo sapiens, UniProt P42680); test: Caliper Mobility Shift Assay, kinase inhibition; assay type: biochemical
T1 sequence (P42680 1-631): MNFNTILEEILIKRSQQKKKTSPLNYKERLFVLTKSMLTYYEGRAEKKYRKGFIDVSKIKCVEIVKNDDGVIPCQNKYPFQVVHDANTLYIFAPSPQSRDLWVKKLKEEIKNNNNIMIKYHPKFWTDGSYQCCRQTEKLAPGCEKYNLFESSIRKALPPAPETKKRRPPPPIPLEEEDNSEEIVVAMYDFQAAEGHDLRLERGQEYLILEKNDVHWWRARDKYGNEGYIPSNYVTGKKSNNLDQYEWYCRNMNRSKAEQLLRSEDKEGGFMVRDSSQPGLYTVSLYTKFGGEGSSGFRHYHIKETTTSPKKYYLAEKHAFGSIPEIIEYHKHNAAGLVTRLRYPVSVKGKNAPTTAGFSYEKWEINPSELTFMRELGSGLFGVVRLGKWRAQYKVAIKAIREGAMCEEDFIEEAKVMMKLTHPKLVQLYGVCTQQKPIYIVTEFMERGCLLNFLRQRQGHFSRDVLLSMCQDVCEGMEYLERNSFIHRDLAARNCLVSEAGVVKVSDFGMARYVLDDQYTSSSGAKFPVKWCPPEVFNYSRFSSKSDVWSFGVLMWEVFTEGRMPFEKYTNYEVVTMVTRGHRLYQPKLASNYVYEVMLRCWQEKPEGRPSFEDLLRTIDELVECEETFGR
From the text: as §1

[11] = biological target: EGFR (Homo sapiens, UniProt P00533); test: Caliper Mobility Shift Assay, kinase inhibition; assay type: biochemical
From the text: as §1

[12] = biological target: T2, JAK3 (Homo sapiens, UniProt P52333); test: Caliper Mobility Shift Assay, kinase inhibition; assay type: biochemical
T2 sequence (P52333 1-1124): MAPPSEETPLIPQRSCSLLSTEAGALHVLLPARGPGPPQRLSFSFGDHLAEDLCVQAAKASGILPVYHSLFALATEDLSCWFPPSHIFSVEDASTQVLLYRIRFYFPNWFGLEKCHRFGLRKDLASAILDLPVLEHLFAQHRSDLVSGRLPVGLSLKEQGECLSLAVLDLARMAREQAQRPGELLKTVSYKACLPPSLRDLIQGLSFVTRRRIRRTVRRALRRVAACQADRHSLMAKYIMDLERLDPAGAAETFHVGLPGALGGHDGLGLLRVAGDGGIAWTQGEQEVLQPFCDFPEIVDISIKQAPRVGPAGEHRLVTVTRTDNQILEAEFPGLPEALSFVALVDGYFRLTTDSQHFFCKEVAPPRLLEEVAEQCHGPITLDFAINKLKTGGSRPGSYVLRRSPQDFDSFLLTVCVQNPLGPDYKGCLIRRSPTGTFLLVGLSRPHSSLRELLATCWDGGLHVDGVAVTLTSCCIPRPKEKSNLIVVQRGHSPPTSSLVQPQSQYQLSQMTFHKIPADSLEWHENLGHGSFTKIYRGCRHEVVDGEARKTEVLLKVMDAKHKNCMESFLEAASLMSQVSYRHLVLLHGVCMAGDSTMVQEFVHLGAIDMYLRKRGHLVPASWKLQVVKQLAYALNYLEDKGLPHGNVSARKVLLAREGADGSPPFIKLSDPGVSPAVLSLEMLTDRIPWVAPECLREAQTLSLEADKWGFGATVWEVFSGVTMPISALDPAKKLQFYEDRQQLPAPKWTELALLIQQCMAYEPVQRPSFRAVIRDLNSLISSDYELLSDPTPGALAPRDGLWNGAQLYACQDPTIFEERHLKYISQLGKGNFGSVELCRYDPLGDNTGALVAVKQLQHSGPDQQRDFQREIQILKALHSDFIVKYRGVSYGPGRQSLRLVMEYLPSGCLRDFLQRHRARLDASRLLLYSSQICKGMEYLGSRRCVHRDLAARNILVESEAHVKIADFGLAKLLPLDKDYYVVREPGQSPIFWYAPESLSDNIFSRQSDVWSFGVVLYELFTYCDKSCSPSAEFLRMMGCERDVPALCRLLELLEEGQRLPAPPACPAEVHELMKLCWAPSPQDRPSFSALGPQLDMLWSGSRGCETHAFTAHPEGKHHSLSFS
From the text: as §1

[13] = biological target: T3, ITK (Homo sapiens, UniProt Q08881); test: Caliper Mobility Shift Assay, kinase inhibition; assay type: biochemical
T3 sequence (Q08881 1-620): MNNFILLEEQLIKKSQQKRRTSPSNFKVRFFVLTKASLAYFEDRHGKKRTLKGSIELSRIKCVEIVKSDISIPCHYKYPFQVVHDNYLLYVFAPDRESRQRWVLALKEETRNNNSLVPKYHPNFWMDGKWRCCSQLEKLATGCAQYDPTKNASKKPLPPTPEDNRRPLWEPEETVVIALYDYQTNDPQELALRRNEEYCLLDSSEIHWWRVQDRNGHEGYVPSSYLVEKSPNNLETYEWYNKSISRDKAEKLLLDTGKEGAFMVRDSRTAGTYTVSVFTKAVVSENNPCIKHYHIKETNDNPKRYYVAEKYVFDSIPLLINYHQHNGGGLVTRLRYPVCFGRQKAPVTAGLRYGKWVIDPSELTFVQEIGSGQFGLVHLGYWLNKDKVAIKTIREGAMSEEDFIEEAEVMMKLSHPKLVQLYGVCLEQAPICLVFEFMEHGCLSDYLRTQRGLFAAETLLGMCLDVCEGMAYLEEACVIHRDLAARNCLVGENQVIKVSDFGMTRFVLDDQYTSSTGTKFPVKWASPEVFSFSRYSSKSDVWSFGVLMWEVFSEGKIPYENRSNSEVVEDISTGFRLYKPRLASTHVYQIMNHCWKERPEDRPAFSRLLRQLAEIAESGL
From the text: as §1

[14] = biological target: HER4 (Homo sapiens, UniProt Q15303); test: Caliper Mobility Shift Assay, kinase inhibition; assay type: biochemical
From the text: as §1

[15] = test system: ITK, TEC, EGFR, HER2, HER4, JAK3, HCK, LYN, SRC and SYK; test: Kinase selectivity panel, Caliper Mobility Shift Assay; assay type: biochemical; conditions: summary of Table 2
Procedure: The semi-inhibitory concentration IC50 of the compound (the concentration of the compound required to inhibit the enzyme activity to 50%) is determined by mixing a fixed enzyme with a specific substrate and different concentrations of the test compounds. The test method used was the Caliper Mobility Shift Assay, the kinases to be tested are BTK, ITK, TEC, EGFR, HER2, HER4, JAK3, HCK, LYN, SRC and SYK. The standard reference compound used was staurosporine.
The results of experiments on the inhibitions of ITK, TEC, EGFR, HER2, HER4, JAK3, HCK, LYN, SRC and SYK enzyme activities by the target compound Id were summarized in Table 2. […] This selective inhibiting effect has important values for the treatment of diseases such as rheumatoid arthritis, B cell lymphoma, leukemia, multiple myeloma, allergies, asthma, multiple sclerosis, type I diabetes and systemic lupus erythematosus. The tests of other compounds of the present invention also have similar results.

[16] = Pharmacokinetic properties in CD-1 mouse; assay type: in vivo; conditions: both sexes, plasma; for AUC(0-t): read-out: AUClast (area under the curve); for half-life: read-out: Terminal t1/2 (half life) (converted)
Procedure: Experiment animals: CD-1 mouse, males and females; body weight: 20-25 g;
Route of administration: oral/intravenous. […]
Sample collection: blood samples were collected at the following time points: 5 minutes, 15 minutes, 30 minutes, 1 hours, 2 hours, 4 hours, 8 hours and 24 hours after administration.
Sample analysis: The collected samples were tested using the LC-MS/MS method. The model of the instrument used was API4000.
Pharmacokinetic data analysis: the obtained plasma concentration data were fitted and calculated according to the non-compartmental model method using WinNolin.
In Table 3, CL: clearance. VSS: apparent volume of distribution at steady state. Terminal t1/2: half life. AUClast: area under the curve. MRTINF: average residence time. Tmax: peak time. Cmax: peak concentration. F: bioavailability, refers to the fraction of oral dosage actually reaching the blood circulation.

[17] = 3 mg/kg, intravenous injection, single administration
[18] = 15 mg/kg, oral, single administration

Sequence of BTK (Q06187 whole entry): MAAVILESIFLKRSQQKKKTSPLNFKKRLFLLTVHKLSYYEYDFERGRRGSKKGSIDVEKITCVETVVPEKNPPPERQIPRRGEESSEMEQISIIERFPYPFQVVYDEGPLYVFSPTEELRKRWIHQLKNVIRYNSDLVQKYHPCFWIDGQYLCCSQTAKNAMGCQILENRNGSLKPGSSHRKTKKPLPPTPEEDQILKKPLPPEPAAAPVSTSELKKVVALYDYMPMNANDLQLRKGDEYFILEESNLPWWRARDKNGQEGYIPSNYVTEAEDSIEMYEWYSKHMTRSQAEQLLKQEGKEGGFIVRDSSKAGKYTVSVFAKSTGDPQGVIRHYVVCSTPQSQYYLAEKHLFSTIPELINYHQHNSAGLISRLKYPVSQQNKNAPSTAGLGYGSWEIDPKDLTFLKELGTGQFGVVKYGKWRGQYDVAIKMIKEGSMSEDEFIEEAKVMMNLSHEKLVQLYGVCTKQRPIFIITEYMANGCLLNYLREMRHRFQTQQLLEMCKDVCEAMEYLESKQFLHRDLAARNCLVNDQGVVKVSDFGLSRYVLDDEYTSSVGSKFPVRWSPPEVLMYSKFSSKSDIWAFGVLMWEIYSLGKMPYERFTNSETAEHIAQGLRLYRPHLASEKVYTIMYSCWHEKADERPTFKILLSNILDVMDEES
Sequence of LYN (P07948 whole entry): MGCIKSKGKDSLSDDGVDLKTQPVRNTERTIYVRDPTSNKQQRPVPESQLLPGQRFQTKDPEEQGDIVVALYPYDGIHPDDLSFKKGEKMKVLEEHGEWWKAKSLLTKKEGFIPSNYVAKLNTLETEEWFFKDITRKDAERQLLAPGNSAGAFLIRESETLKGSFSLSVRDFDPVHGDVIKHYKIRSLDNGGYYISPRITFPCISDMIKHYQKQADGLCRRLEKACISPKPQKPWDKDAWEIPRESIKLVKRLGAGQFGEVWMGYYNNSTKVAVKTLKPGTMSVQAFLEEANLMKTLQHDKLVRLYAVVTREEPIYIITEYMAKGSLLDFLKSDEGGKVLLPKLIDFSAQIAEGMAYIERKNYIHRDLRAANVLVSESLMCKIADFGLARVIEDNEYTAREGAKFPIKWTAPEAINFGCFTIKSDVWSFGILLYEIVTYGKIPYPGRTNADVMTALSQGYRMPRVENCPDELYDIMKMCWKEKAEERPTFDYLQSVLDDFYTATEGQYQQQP
Sequence of SRC (P12931 whole entry): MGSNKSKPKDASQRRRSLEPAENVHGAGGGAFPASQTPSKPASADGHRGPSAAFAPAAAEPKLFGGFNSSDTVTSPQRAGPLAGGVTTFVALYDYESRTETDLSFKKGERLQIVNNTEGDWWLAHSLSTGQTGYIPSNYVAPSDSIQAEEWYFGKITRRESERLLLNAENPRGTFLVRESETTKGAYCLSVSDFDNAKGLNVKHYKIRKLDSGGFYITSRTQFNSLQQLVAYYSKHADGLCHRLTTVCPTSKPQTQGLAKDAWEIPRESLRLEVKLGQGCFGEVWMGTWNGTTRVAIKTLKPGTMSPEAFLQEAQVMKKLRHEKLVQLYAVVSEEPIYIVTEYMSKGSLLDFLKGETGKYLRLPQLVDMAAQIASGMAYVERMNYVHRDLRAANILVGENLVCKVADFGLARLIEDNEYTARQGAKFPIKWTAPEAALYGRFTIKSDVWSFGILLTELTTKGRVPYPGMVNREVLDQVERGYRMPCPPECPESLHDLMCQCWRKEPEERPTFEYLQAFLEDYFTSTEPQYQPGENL
Sequence of HCK (P08631 whole entry): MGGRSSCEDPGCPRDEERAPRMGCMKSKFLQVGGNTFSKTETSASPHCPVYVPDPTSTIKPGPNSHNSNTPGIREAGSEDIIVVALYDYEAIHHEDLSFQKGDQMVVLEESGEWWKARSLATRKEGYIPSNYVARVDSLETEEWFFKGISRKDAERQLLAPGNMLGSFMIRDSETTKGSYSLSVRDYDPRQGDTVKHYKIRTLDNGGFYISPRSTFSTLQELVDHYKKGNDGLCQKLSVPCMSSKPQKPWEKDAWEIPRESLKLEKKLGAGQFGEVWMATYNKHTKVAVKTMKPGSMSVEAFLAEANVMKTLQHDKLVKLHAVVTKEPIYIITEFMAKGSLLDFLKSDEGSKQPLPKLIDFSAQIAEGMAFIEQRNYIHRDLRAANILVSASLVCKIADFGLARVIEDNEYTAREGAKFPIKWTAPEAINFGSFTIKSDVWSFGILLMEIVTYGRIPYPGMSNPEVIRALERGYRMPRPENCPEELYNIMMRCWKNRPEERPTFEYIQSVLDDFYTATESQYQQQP
Sequence of HER2 (P04626 23-1255): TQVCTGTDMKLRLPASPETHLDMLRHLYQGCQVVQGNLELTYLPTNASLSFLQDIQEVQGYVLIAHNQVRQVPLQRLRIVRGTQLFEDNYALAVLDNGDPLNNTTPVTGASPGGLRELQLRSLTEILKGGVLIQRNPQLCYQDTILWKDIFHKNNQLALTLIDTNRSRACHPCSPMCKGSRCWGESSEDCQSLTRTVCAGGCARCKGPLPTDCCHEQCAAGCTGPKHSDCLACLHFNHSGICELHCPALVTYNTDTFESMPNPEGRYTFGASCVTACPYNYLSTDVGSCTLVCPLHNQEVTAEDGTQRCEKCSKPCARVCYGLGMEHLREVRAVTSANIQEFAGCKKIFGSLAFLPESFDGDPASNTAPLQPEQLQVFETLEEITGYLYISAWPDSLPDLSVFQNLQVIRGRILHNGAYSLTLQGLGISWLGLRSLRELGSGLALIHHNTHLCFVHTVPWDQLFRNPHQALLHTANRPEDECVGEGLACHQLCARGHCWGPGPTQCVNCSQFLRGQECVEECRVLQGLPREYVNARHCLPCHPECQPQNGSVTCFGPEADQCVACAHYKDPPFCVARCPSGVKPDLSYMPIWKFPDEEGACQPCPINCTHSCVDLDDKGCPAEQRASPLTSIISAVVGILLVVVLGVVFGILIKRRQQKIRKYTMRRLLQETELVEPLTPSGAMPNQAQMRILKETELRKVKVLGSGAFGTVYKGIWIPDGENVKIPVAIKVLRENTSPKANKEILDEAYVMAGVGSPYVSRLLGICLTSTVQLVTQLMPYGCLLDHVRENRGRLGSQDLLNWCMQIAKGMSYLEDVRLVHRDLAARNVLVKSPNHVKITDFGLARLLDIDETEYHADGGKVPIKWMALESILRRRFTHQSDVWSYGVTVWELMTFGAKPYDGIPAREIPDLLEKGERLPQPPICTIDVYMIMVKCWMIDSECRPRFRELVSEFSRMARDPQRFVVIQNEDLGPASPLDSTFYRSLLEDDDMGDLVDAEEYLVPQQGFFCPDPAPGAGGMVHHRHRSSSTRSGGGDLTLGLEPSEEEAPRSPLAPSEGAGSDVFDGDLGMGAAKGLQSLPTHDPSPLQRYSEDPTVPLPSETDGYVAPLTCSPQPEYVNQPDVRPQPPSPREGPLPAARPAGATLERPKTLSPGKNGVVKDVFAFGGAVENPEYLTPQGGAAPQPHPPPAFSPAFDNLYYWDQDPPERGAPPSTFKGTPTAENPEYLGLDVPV
Sequence of EGFR (P00533 25-1210): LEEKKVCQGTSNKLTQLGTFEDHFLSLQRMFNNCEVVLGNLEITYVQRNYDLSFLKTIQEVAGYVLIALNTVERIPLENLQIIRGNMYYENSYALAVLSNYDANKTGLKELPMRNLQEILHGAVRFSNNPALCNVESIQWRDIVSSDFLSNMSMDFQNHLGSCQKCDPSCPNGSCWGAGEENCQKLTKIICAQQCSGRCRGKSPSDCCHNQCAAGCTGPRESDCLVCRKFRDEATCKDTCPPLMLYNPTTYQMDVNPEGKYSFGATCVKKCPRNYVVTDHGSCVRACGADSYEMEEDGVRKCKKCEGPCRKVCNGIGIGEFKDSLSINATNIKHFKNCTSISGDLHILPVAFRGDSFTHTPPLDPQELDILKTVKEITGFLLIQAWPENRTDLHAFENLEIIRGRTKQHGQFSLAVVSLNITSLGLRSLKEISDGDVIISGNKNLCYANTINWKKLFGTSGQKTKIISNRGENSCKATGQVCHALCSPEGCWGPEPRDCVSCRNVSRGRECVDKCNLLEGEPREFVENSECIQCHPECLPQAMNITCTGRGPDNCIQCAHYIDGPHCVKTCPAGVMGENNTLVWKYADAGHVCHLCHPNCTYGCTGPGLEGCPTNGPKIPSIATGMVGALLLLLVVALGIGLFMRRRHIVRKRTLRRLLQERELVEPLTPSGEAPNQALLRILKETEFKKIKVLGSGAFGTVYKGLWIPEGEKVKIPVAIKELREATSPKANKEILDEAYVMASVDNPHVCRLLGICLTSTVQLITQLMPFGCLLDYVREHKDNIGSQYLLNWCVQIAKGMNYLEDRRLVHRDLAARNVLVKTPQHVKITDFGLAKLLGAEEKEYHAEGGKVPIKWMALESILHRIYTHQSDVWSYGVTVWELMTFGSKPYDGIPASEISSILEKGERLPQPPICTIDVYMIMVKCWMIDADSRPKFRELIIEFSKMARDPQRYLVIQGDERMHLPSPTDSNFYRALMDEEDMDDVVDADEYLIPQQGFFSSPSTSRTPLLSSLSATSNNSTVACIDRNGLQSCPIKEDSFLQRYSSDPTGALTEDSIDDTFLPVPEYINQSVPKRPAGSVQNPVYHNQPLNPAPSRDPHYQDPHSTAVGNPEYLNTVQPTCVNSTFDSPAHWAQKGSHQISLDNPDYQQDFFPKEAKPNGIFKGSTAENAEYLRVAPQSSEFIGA

Row | Structure (SMILES) | IC50 [1] | IC50 [2] | IC50 [3] | IC50 [4] | half-life [5] | CLint scaled [5] | half-life [7] | CLint scaled [7] | IC50 [8] | inhibiting effects on BTK kinase (in words) [8] | also measured
1 | CC#CC(=O)N1CCC[C@H]1c1nc(-c2ccc(C(=O)Nc3ccccn3)cc2)c2c(N)nccn12 [Acalabrutinib, acalabrutinib, reference compound] | > 1 µM | > 1 µM | > 1 µM | > 1 µM | 23.3 min | 234 mL/min/kg | 11.9 min | 146 mL/min/kg |  |  | half life [6]: 67.8 min
2 | CC#CC(=O)N1CCC[C@H]1c1nc(-c2ccc(NC(=O)c3ccccn3)cc2)c2c(N)nccn12 [Compound of formula Ia] |  |  |  |  |  |  |  |  | 0.415 µM | strong inhibiting effects | 
3 | CC#CC(=O)N1CCC[C@H]1c1nc(-c2ccc(C(=O)Nc3ccccn3)c(C)c2)c2c(N)nccn12 [Compound of formula Ib] |  |  |  |  |  |  |  |  | 0.05 µM | very strong inhibiting effects | 
4 | CC#CC(=O)N1CCC[C@H]1c1nc(-c2ccc(Oc3ccccn3)cc2)c2c(N)nccn12 [Compound of formula Ic] |  |  |  |  |  |  |  |  | 0.577 µM | strong inhibiting effects | 
5 | CC#CC(=O)N1CCC[C@H]1c1nc(-c2ccc(Oc3ccccc3)cc2)c2c(N)nccn12 [Compound of formula Id] | > 1 µM | > 1 µM | > 1 µM | > 1 µM | 8.26 min | 661 mL/min/kg | 3.13 min | 555 mL/min/kg | 0.0048 µM | very strong inhibiting effects | IC50 [9]: > 1 µM; IC50 [10]: 0.04 µM; IC50 [11]: > 1 µM; IC50 [12]: > 1 µM; IC50 [13]: > 1 µM; IC50 [14]: > 1 µM; metabolism rate relative to acalabrutinib (in words) ([5]; mouse or human liver microsomes): metabolized faster than acalabrutinib; selective inhibiting activity (in words) [15]: good; AUC(0-t) [16, 17]: 661 ng·h/mL; clearance ([16]; 3 mg/kg, intravenous injection, single administration, read-out: CL (clearance) (converted)): 77 mL/min/kg; MRT inf ([16]; 3 mg/kg, intravenous injection, single administration, read-out: MRTINF (average residence time)): 17.8 min; half-life [16, 17]: 17.2 min; Vd ([16]; 3 mg/kg, intravenous injection, single administration, read-out: Vss (apparent volume of distribution at steady state)): 1.3 L/kg; bioavailability ([16]; 15 mg/kg oral vs 3 mg/kg intravenous, read-out: F (bioavailability)): 56.4%; AUC(0-t) [16, 18]: 1880 ng·h/mL; Cmax ([16]; 15 mg/kg, oral, single administration, read-out: Cmax (peak concentration)): 848 ng/mL; half-life [16, 18]: 98.4 min; Tmax ([16]; 15 mg/kg, oral, single administration, read-out: Tmax (peak time)): 15 min
